Patent US7632829B2, “Diazepan derivatives” (Hoffmann-La Roche Inc., priority 2006, dated 2009)

Target: T1, human chemokine receptor 2 isoform B (Homo sapiens, UniProt P41597)
T1 construct: host or cells: CHOK1-CCR2B-A5 (CHO-K1)
T1 sequence (P41597 1-360 isoform P41597-2): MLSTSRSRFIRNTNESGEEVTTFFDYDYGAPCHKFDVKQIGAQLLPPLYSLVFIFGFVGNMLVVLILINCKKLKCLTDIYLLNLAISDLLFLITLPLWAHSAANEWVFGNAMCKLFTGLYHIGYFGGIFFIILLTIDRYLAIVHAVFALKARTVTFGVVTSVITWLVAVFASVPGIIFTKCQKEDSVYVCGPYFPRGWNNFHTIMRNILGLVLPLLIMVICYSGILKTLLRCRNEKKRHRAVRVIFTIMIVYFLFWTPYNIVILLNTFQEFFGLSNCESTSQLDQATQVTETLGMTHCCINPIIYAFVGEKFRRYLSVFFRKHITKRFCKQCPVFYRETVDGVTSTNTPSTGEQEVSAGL
Assay: Calcium mobilization assay (FLIPR, CHOK1-CCR2B-A5 cells, 20 nM MCP-1)
Type: cell-based
Conditions: Ca mobilisation assay, CCR2, antagonist activity vs 20 nM MCP-1
Protocol: CHOK1-CCR2B-A5 cells (from Euroscreen) stably overexpressing the human chemokine receptor 2 isoform B were cultured in Nutrient Hams F12 medium supplemented with 5% FBS, 100 U/ml penicillin, 100 μg/ml streptomycin, 400 μg/ml G418 and 5 μg/ml puromycin.
For the assay cells were grown overnight in 384-well black clear flat bottom polystyrene plates (Costar) at 37° C. at 5% CO2. After washing with DMEM, 20 mM Hepes, 2.5 mM probenecid, 0.1% BSA (DMEM assay buffer) cells were loaded with 4 μM Fluo-4 in the same DMEM assay buffer for 2 hours at 30° C. Excess dye was removed and cells were washed with DMEM assay buffer. 384-well compound plates were prepared with DMEM assay buffer/0.5% DMSO with or without various concentrations of test compounds. Usually compounds were tested for agonist and antagonist activity.
Test compounds were added to the assay plate and agonist activity was monitored as fluorescence for 80 seconds with a FLIPR (488 nm excitation; 510-570 nm emission; Molecular Devices). After 20-30 min. of incubation at 30° C., 20 nM MCP-1 (R&D; Roche) was added and fluorescence was monitored again for 80 seconds. Increases in intracellular calcium are reported as maximum fluorescence after agonist exposure minus basal fluorescence before exposure. Antagonist activity is indicated as inhibitor concentration required for 50% inhibition of specific calcium increases.

| Compound | IC50 [nM] |
| --- | --- |
| 1-[(E)-3-(3,4-Dichloro-phenyl)-acryloyl]-4-[3-(4-methyl-piperazin-1-yl)-propyl]-[1,4]diazepan-5-one [Example 75] | 267 |
| 4-(3-{4-[(E)-3-(3,4-Dichloro-phenyl)-acryloyl]-7-oxo-[1,4]diazepan-1-yl}-propylamino)-cyclohexanecarboxylic acid amide [Example 77] | 326 |
| 4-(3-{4-[(E)-3-(3,4-Dichloro-phenyl)-acryloyl]-7-oxo-[1,4]diazepan-1-yl}-propylamino)-cyclohexanecarboxylic acid ethyl ester [Example 67] | 241 |
| 4-[3-(4-Methyl-4-hydroxy-piperidin-1-yl)-propyl]-1-[(E)-3-(3,4-dichloro-phenyl)-acryloyl]-[1,4]diazepan-5-one [Example 76] | 219 |
| CC1CCC(N(C)CCCN2CCN(C(=O)/C=C/c3ccc(Cl)c(Cl)c3)CCC2=O)CC1 (mixture of isomers) [Example 54, cis/trans-1-[(E)-3-(3,4-Dichloro-phenyl)-acryloyl]-4-{3-[methyl-(4-methyl-cyclohexyl)-amino]-propyl}-[1,4]diazepan-5-one] | 747 |
| CC1CCCCC1NCCN1CCN(C(=O)C=Cc2ccc(Cl)c(Cl)c2)CCC1=O (mixture of isomers) [Example 104, cis/trans-1-[(E)-3-(3,4-Dichloro-phenyl)-acryloyl]-4-[3-(2-methyl-cyclohexylamino)-ethyl]-[1,4]diazepan-5-one] | 598 |
| CC1CCC(N(C)CCN2CCN(C(=O)/C=C/c3ccc(Cl)c(Cl)c3)CCC2=O)CC1 (mixture of isomers) [Example 124, cis/trans-1-[(E)-3-(3,4-Dichloro-phenyl)-acryloyl]-4-{3-[methyl-(4-methyl-cyclohexyl)-amino]-ethyl}-[1,4]diazepan-5-one] | 667 |
| CC1CCC(NCCN2CCN(C(=O)/C=C/c3ccc(Cl)c(Cl)c3)CCC2=O)CC1 (mixture of isomers) [Example 138, cis/trans-1-[(E)-3-(3,4-Dichloro-phenyl)-acryloyl]-4-{3-[(4-methyl-cyclohexyl)-amino]-ethyl}-[1,4]diazepan-5-one] | 1260 |
| CC1C(O)CCCN1CCCN1CCN(C(=O)C=Cc2ccc(F)c(Cl)c2)CCC1=O (mixture of isomers) [Example 208, (rac,trans)-1-[(E)-3-(3-Chloro-4-fluoro-phenyl)-acryloyl]-4-[3-(3-hydroxy-2-methyl-piperidin-1-yl)-propyl]-[1,4]diazepan-5-one] | 780 |
| CC1C(O)CCCN1CCCN1CCN(C(=O)C=Cc2ccc(F)c(Cl)c2)CCC1=O (mixture of isomers) [Example 209, (rac,cis)-1-[(E)-3-(3-Chloro-4-fluoro-phenyl)-acryloyl]-4-[3-(3-hydroxy-2-methyl-piperidin-1-yl)-propyl]-[1,4]diazepan-5-one] | 1390 |
| COC1COCCC1NCCCN1CCN(C(=O)C=Cc2ccc(Cl)c(Cl)c2)CCC1=O (mixture of isomers) [Example 275, (rac,cis)-1-[(E)-3-(3,4-Dichloro-phenyl)-acryloyl]-4-[3-(3-methoxy-tetrahydro-pyran-4-ylamino)-propyl]-[1,4]diazepan-5-one] | 1090 |

Now from value to compound:

| IC50 [nM] | Compound |
| --- | --- |
| 335 | 4-[3-(Cyclohexy-methyl-amino)-ethyl]-1-[(E)-3-(3,4-dichloro-phenyl)-acryloyl]-[1,4]diazepan-5-one [Example 111] |
| 391 | CC1CCCCC1NCCCN1CCN(C(=O)C=Cc2ccc(Cl)c(Cl)c2)CCC1=O (mixture of isomers) [Example 64, cis/trans-1-[(E)-3-(3,4-Dichloro-phenyl)-acryloyl]-4-[3-(2-methyl-cyclohexylamino)-propyl]-[1,4]diazepan-5-one] |
| 421 | O=C(C=Cc1ccc(F)c(Cl)c1)N1CCC(=O)N(CCCN2CCC(F)C(O)C2)CC1 (mixture of isomers) [Example 213, (rac,trans)-1-[(E)-3-(3-Chloro-4-fluoro-phenyl)-acryloyl]-4-[3-(4-fluoro-3-hydroxy-piperidin-1-yl)-propyl]-[1,4]diazepan-5-one] |
| 592 | O=C(C=Cc1ccc(F)c(Cl)c1)N1CCC(=O)N(CCCN2CCC(O)C(F)C2)CC1 (mixture of isomers) [Example 214, (rac,trans)-1-[(E)-3-(3-Chloro-4-fluoro-phenyl)-acryloyl]-4-[3-(3-fluoro-4-hydroxy-piperidin-1-yl)-propyl]-[1,4]diazepan-5-one] |
| 14 | CC1CC(O)CN(CCCN2CCN(C(=O)C=Cc3ccc(F)c(Cl)c3)CCC2=O)C1 (mixture of isomers) [Example 224, (rac,cis)-1-[(E)-3-(3-Chloro-4-fluoro-phenyl)-acryloyl]-4-[3-(3-hydroxy-5-methyl-piperidin-1-yl)-propyl]-[1,4]diazepan-5-one] |
| 243 | CC1C(O)CCCN1CCCN1CCN(C(=O)C=Cc2ccc(Cl)c(Cl)c2)CCC1=O (mixture of isomers) [Example 225, (rac,trans)-1-[(E)-3-(3,4-Dichlorophenyl)-acryloyl]-4-[3-(3-hydroxy-2-methyl-piperidin-1-yl)-propyl]-[1,4]diazepan-5-one] |
| 218 | O=C(C=Cc1ccc(Cl)c(Cl)c1)N1CCC(=O)N(CCCN2CCC(O)C(F)C2)CC1 (mixture of isomers) [Example 231, (rac,trans)-1-[(E)-3-(3,4-Dichloro-phenyl)-acryloyl]-4-[3-(3-fluoro-4-hydroxy-piperidin-1-yl)-propyl]-[1,4]diazepan-5-one] |
| 77 | O=C(C=Cc1ccc(Cl)c(Cl)c1)N1CCC(=O)N(CCCN2CCC(CO)C(O)C2)CC1 (mixture of isomers) [Example 266, (rac,cis)-1-[(E)-3-(3,4-Dichloro-phenyl)-acryloyl]-4-[3-(3-hydroxy-4-hydroxymethyl-piperidin-1-yl)-propyl]-[1,4]diazepan-5-one] |
| 5 | CC1CC(O)CN(CCCN2CCN(C(=O)C=Cc3ccc(Cl)c(Cl)c3)CCC2=O)C1 (mixture of isomers) [Example 279, (rac,cis)-1-[(E)-3-(3,4-Dichloro-phenyl)-acryloyl]-4-[3-(3-hydroxy-5-methyl-piperidin-1-yl)-propyl]-[1,4]diazepan-5-one] |
| 28 | O=C(/C=C/c1ccc(Cl)c(Cl)c1)N1CCC(=O)N(C[C@@H](O)CN2CC[C@H](CO)[C@H](O)C2)CC1 (mixture of isomers) [Example 328, 1-[(E)-3-(3,4-Dichloro-phenyl)-acryloyl]-4-[(S)-2-hydroxy-3-(cis-3-hydroxy-4-hydroxymethyl-piperidin-1-yl)-propyl]-[1,4]diazepan-5-one] |
| 137 | COC[C@H]1CCN(C[C@H](O)CN2CCN(C(=O)/C=C/c3ccc(Cl)c(Cl)c3)CCC2=O)C[C@H]1O (mixture of isomers) [Example 329, 1-[(E)-3-(3,4-Dichloro-phenyl)-acryloyl]-4-[(S)-2-hydroxy-3-(cis-3-hydroxy-4-methoxymethyl-piperidin-1-yl)-propyl]-[1,4]diazepan-5-one] |
| 301 | O=C(/C=C/c1ccc(Cl)c(Cl)c1)N1CCC(=O)N(C[C@@H](O)CN2CC[C@@H](CO)[C@H](O)C2)CC1 (mixture of isomers) [Example 333, 1-[(E)-3-(3,4-Dichloro-phenyl)-acryloyl]-4-[(S)-2-hydroxy-3-(trans-3-hydroxy-4-hydroxymethyl-piperidin-1-yl)-propyl]-[1,4]diazepan-5-one] |
